In brackets after ≈: the same amount, converted by molar mass. Entries after “also recorded” stand apart in the source; their conditions may differ. Ends that are not written are not given here.
Tests used:
P. falciparum schizonts = test: Schizont rupture under E64 treatment; type: cell-based, Plasmodium falciparum; settings: 10 uM E64
Procedure: Parasites were then incubated until most parasites had developed to late-stage pigmented trophozoites and schizonts (typically 40-42 hours). Early to mid schizont stage parasites (40-44 hours post invasion) were separated from uninfected RBC and early-stage infected RBCs (resulting in >95% purity) with a MAC magnet separation column (Macs Miltenyi Biotec). Purified schizonts were then incubated with 10 uM of E64 (Sigma) for 7-8 hours; Applicant typically used approximately 30 ml of culture media for every 100 ml of starting culture (3% hematocrit, 3% parasitemia). After approximately 6 hours of incubation with E64, treated schizonts were pelleted by centrifugation at 1900 g for 5 minutes. Supernatant was removed and schizonts were resuspended in fresh culture media. Resuspended E64 treated parasites were filtered through a 1.2 um Acrodisc 32 mm syringe filter (Pall Corporation). […]
To test the activity of inhibitory compounds on invasion (Supporting Information Table 3), E64 treated schizonts were resuspended and filtered in culture medium without human serum. […] Merozoite:RBCs suspensions containing inhibitors were incubated for one hour and then washed twice with culture medium to remove inhibitors, then resuspended in fresh culture media and incubated and analysed as for standard merozoite invasion assays. […]

[1] = system: purified P. falciparum merozoites invading RBCs; test: Invasion inhibition assay (IIA) using purified merozoites; type: cell-based, Plasmodium falciparum
Procedure: Purified merozoites were mixed with uninfected RBCs and cultured using standard conditions in 96 well U-bottom plates at a final volume of 50 μl or 100 μl per well. Specific assay conditions were varied for different test conditions, as described in the Results section of the manuscript. Assays were typically performed under static conditions. Some assays were also performed with agitation of merozoite:RBC suspensions.
To test the activity of inhibitory compounds on invasion (Supporting Information Table 3), E64 treated schizonts were resuspended and filtered in culture medium without human serum. A typical merozoite invasion inhibition assay consisted of filtered merozoites (40 ul) added to RBC suspension (5 ul at […]; final concentration 1% hematocrit) and inhibitory compounds (5 ul at 10-times the final concentration required) in 96-well plates. Merozoite:RBCs suspensions containing inhibitors were incubated for one hour and then washed twice with culture medium to remove inhibitors, then resuspended in fresh culture media and incubated and analysed as for standard merozoite invasion assays. A number of compounds were also tested for inhibition of schizont rupture by incubating late stage schizonts (1-2% parasitaemia, 1% haematocrit in 50 ul) with a 1 in 10 dilution of compounds and monitoring the course of schizont rupture at 3 time points over an 8 hour period by flow cytometry.

[2] = system: P. falciparum blood stage growth; test: Growth inhibition assay (GIA), flow cytometry; type: cell-based, Plasmodium falciparum; settings: for inhibitory activity against P. falciparum blood stage growth in GIA (words) / IC50, inhibition of P. falciparum blood stage growth in GIA: 3D7 parasite line; for IC50, inhibition of P. falciparum blood stage growth in GIA: one cycle of parasite growth
Procedure: P. falciparum was cultured as described. Parasites were maintained in culture media of RPMI-HEPES supplemented with 5% (vol/vol) heat inactivated (56° C. 1 hr) human serum (Australian Red Cross Blood Bank),. […] (Gibco), 10mM L-glutamine (Gibco) and 25 mM […]. Parasites were grown at 37° C., 2% hematocrit, O+ human erythrocytes (Australian Red Cross Blood Bank), 1% O2 4% CO2 95% N2 atmosphere. Sorbitol (Sigma-Aldrich) was used to synchronize cultures. 32. Persson K E, Lee C T, Marsh K, Beeson J G (2006) Development and optimization of high-throughput methods to measure Plasmodium falciparum-specific growth inhibitory antibodies. J Clin Microbiol 44: 1665-1673.33. Lambros C, Vanderberg J P (1979) Synchronization of Plasmodium falciparum erythrocytic stages in culture. J Parasitol 65: 418-420.
Heparin and K5 polysaccharides (Table 1) were tested for inhibitory activity against P. falciparum parasites using high throughput growth inhibitory assays (GlAs). Duplicate 25 μl suspensions of synchronized parasites, 2% parasitemia (32 hr trophozoite), 1% hematocrit with normal or enzymatically treated erythrocyctes, were incubated with inhibitory compounds in 96 well sterile U-bottom plates (Falcon). For humidification, outside wells were filled with sterile human tonicity phosphate-buffered saline (HT-PBS). Plates were incubated as for parasite culture for 44 hrs and analyzed. Parasites were stained with 10 μg/mL ethidium bromide (EtBr) (BioRad), HT-PBS, 1 hr in darkness. Cells were washed and re-suspended in 200 μL HT-PBS. Parasitemia was measured using FACSCalibur flow-cytometry. Data were analyzed using FlowJo (Tree Star), gating on intact erythrocytes and determining parasitemia by EtBr staining. Inhibitory effects of compounds were expressed as percent growth of uninhibited controls (HT-PBS) for each experiment.
Erythrocytes were treated with neuraminidase, chymotrypsin and trypsin as described previously. Erythrocytes were washed with RPMI-HEPES and incubated with neuraminidase ([…], 15 minutes), chymotrypsin (1 mg/mL, 45 minutes) or trypsin (100 μg/mL, […]) at 37° C. Neuraminidase treated bells were washed three times with RPMI-HEPES and chymotrypsin and trypsin treated cells were washed once with culture media and twice with RPMI-HEPES and then used in GIAs. 34. Persson K E, McCallum F J, Reiling L, Lister N A, Stubbs J, et al. (2008) Variation in use of erythrocyte invasion pathways by Plasmodium falciparum mediates evasion of human inhibitory antibodies. J Clin Invest 118: 342-351.

MSP1-42 [3] = molecular target: T1, MSP1-42 (Plasmodium falciparum, UniProt Q8I0U8); test: Binding of native merozoite proteins to heparin-agarose beads with soluble inhibitors; parameters: proteolytically processed into 83 kDa, 30 kDa, 38 kDa and a C-terminal 42kDa (MSP1-42) fragment; endogenous in cells; host or cells: P. falciparum schizont-stage cultures, Triton X-100 extract; species or system P. falciparum; settings: soluble inhibitor 200 μg/mL
T1 sequence (Q8I0U8 1327-1699): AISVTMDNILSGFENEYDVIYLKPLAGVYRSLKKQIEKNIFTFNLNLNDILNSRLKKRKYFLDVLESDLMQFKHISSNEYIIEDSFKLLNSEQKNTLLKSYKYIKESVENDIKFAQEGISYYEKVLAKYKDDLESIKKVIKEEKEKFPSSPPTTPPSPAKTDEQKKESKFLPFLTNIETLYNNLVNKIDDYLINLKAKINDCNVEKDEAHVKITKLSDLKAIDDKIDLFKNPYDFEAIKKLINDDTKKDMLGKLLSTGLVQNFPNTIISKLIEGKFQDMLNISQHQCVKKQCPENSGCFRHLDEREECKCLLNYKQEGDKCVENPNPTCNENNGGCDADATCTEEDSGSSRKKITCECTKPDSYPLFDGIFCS
Text: Synchronized schizont stage (40-48 hr, 5-8% parasitemia) cultures were used for protein extraction. Uninfected erythrocytes were lysed with 0.15% saponin (Kodak) on ice for ten minutes. Remaining pellets were washed three times with cold HT-PBS. Protein from schizonts was extracted with 5 times volume of 1% TritonX100 (TX100) (Sigma-Aldrich, Australia), HT-PBS with protease inhibitors (Roche). Insoluble components were pelleted by centrifugation and supernatants collected. Schizont TX100 extracted proteins were bound to heparin-agarose beads (Sigma-Aldrich, Australia) as previously described. Heparin-agarose beads were washed once with 1% casein in PBS, once in PBS, and then blocked with 1% casein in PBS overnight at 4° C. TX100 merozoite protein extracts where incubated with beads containing 0.1% casein and 200 μg/mL of test inhibitor, or PBS as control, overnight at 4° C.; 50 μL of packed beads and 100 μL protein and inhibitor were used or each test sample. Inhibitors used were heparin and CSC. Unbound proteins in the supernatant were collected through Micro Bio-Spin Chromatography Columns (Bio-Rad). After incubation, beads were washed five times with PBS containing 0.1% casein and 1% Triton X-100. Bound proteins were eluted from beads with 50 μL of warmed reducing sample buffer. Bound and unbound proteins were separated by SDS-PAGE under reducing conditions and blotted onto membranes for probing with antibody detection with anti-MSP1 or anti-EBA175. 36. Baum J, Chen L, Healer J, Lopaticki S, Boyle M, et al. (2009) Reticulocyte-binding protein homologue 5—an essential adhesin involved in invasion of human erythrocytes by Plasmodium falciparum: Int J Parasitol 39: 371-380.

lactoferrin = molecular target: T2, lactoferrin (Homo sapiens, UniProt P02788); test: Heparin-BSA binding assay (positive control protein); settings: data not shown
T2 construct: purchased
T2 sequence (P02788 20-710, species assumed): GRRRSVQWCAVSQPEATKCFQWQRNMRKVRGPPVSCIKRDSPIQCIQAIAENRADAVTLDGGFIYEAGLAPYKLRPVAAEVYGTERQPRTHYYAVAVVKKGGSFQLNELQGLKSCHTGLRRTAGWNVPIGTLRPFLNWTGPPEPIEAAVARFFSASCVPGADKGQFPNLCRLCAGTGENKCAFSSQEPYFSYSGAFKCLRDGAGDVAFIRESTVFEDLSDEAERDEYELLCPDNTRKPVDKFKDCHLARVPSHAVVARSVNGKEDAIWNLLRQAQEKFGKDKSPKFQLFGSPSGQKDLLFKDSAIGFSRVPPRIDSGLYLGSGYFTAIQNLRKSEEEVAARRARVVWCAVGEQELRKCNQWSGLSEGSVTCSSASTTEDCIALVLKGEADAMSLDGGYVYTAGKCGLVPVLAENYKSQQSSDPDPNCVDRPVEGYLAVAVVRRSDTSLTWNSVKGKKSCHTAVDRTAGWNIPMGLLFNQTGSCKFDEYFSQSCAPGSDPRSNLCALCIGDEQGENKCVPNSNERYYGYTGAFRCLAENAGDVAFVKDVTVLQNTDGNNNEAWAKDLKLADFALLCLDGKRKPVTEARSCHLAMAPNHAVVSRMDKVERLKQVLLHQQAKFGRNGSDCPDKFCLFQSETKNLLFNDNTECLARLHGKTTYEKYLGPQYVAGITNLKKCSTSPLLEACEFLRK
Procedure: (§1) Recombinant merozoite antigens were coated (1 μg/mL) onto 96 well plates (Nunc Maxisorb) in HT-PBS overnight at 4° C. Plates were washed and blocked with 1% casein, 1 hr, room temperature. Plates were incubated with heparin-BSA conjugate with soluble inhibitors and detected with anti-BSA (rabbit) (Sigma-Aldrich) antibodies and anti-rabbit -HRP. Detection was performed with 2,2′-azino-bis(3-ethylbenzthiazoline-6-sulphonic acid) (Sigma-Aldrich) monitored for colour change and measured for absorbance at 405 nm. All incubations were performed in HT-PBS 0.1% casein 0:05% Tween20, 1 hr at room temperature. Plates were washed 3 times HT-PBS 0.05% Tween20 between incubations.

MSP1-42 [4] = molecular target: T1, MSP1-42; test: Heparin-BSA binding assay; parameters: a C-terminal 42kDa (MSP1-42) fragment; made in house; host or cells: E. coli; species or system P. falciparum; settings: soluble inhibitor
Procedure: as §1

With `CC(C)C[C@H](NC(=O)[C@H]1O[C@@H]1C(=O)O)C(=O)NCCCCN=C(N)N` (relative stereo) [E64, trans-Epoxysuccinyl-L-leucylamido(4-guanidino)butane] the “effect on schizont rupture / merozoite release” value (P. falciparum schizonts) was “inhibiting rupture” and the “effect on invasive capacity of merozoites” value ([1]; merozoites incubated with E64) was “did not affect”.

With `O=C(O)CN(CCN(CC(=O)O)CC(=O)O)CC(=O)O` [EDTA] the “inhibition of merozoite invasion in IIA” value [1] was “inhibited invasion”.

`CO[C@H]1O[C@H](COS(=O)(=O)O)[C@@H](O[C@@H]2O[C@@H](C(=O)O)[C@@H](O[C@H]3O[C@H](COS(=O)(=O)O)[C@@H](O[C@@H]4O[C@H](C(=O)O)[C@@H](O[C@H]5O[C@H](COS(=O)(=O)O)[C@@H](O)[C@H](O)[C@H]5NS(=O)(=O)O)[C@H](O)[C@H]4O)[C@H](OS(=O)(=O)O)[C@H]3NS(=O)(=O)O)[C@H](O)[C@H]2OS(=O)(=O)O)[C@H](O)[C@H]1NS(=O)(=O)O` [Fondaparinux] gave an IC50 ([2]; Plasmodium falciparum, read-out: IC50 against Plasmodium falciparum invasion) of ~100 µg/mL (≈ 66.3 µM).

In the case of `C=C1[C@@H](C)[C@H]2[C@H](Cc3ccccc3)NC(=O)[C@]23[C@H](OC(C)=O)/C=C/[C@@](C)(O)C(=O)[C@@H](C)C/C=C/[C@H]3[C@@H]1O` [cytochalasin D], the “inhibition of merozoite invasion in IIA” value [1] is reported as “effectively inhibited merozoite invasion”.

“VFAEFLPLFSKFGSRMHILK [AMA1-binding peptide]” was tested, and the “inhibition of merozoite invasion in IIA” value [1] was “effectively inhibited merozoite invasion”.

For “chondroitin sulfate B-2,4-di-sulfated [CSB-2,4-OS]”, the “inhibitory activity against P. falciparum blood stage growth in GIA (words)” value [2] was “not inhibitory”.

In the case of “chondroitin sulfate B-2-6-di-sulfated [CSB-2,6-OS]”, the “inhibitory activity against P. falciparum blood stage growth in GIA (words)” value [2] is reported as “some inhibitory activity”.

With chondroitin sulfate C [CSC] the “inhibitory activity against P. falciparum blood stage growth in GIA (words)” value [2] was “non-inhibitory; also recorded: not inhibitory”, the “inhibition of native MSP1-42 binding to heparin-agarose beads” value (“inhibition of native MSP1-42 binding” for short) (MSP1-42 [3]) was “not” and the “inhibition of lactoferrin binding to heparin-BSA” value (lactoferrin) was “not”.

chondroitin sulfate D [CSD] was tested, and the “inhibitory activity against P. falciparum blood stage growth in GIA (words)” value [2] was “not inhibitory”.

With chondroitin sulfate E [CSE] the “inhibition of different P. falciparum lines” value ([2]; 3D7, W2mef, D10, E8B, XIE, HCS3, SA-dependent and SA-independent invasion) was “inhibited to similar levels” and the “IC50, inhibition of P. falciparum blood stage growth in GIA” value [2] was 26.7 µg/mL.

In the case of de-2-O-sulfated heparin, the “inhibitory activity against P. falciparum blood stage growth in GIA (words)” value [2] is reported as “reduced activity” and the “IC50, inhibition of P. falciparum blood stage growth in GIA” value [2] is reported as 123 µg/mL.

With de-6-O-sulfated heparin the “inhibitory activity against P. falciparum blood stage growth in GIA (words)” value [2] was “reduced activity”, the “IC50, inhibition of P. falciparum blood stage growth in GIA” value [2] was 373 µg/mL and the “inhibition of native MSP1-42 binding” value (MSP1-42 [3]) was “not”. The “inhibition of native MSP1-42 binding” value (MSP1-42 [3]; listed as de-60-sulfated) was “unable to inhibit binding” and the “inhibition of heparin-BSA binding to recombinant MSP1-42” value (MSP1-42 [4]) was “inhibition”.

For “de-N de-O-sulfated heparin [de-N/O-sulfated heparin]”, the “inhibitory activity against P. falciparum blood stage growth in GIA (words)” value [2] was “loss of inhibitory activity”, the “inhibitory activity against P. falciparum blood stage growth in GIA (words)” value ([2]; listed as Completely desulfated heparin) was “no activity” and the “inhibition of heparin-BSA binding to recombinant MSP1-42” value (MSP1-42 [4]) was “inhibition”.

With de-N-sulfated heparin the “inhibitory activity against P. falciparum blood stage growth in GIA (words)” value [2] was “no activity”, the “inhibitory activity against P. falciparum blood stage growth in GIA (words)” value ([2]; listed as de-N-sulfated) was “loss of inhibitory activity” and the “inhibition of native MSP1-42 binding” value (MSP1-42 [3]) was “not”. The “inhibition of native MSP1-42 binding” value (MSP1-42 [3]; listed as de-N-sulfated) was “unable to inhibit binding”.

In the case of dextran sulfate, the “IC50, inhibition of P. falciparum blood stage growth in GIA” value [2] is reported as 37 µg/mL.

In the case of fucoidan, the “IC50, inhibition of P. falciparum blood stage growth in GIA” value [2] is reported as 38 µg/mL.
